Values of other authors, collected in patent US20110014269A1, “CIVAMIDE PATCH FOR LOCALIZED POST-INCISIONAL NEUROPATHIC PAIN” (WINSTON LABORATORIES, INC., priority 2009, published 2011).

Details: treatment of painful, inflammatory or allergic disorders

Structure (SMILES): COc1cc(CNC(=O)CCCC/C=C\C(C)C)ccc1O [Civamide, cis-8-methyl-N-vanillyl-6-nonenamide]
- burning and stinging relative to capsaicin's use: significantly less
